How the values were obtained:
Assay type in all cases: in vivo, Sprague-Dawley rats
[1] = test system: rats with HF induced by LAD ligation; assay: Body weight and heart weight in LAD ligation ischemic HF rats (Example 5); conditions: mean ± SD, 9 weeks oral therapy; for Heart Wt: HF 2.16 ± 0.33, Sham 1.72 ± 0.09; for % Δ Weight (percentage change in pre-treatment to post-treatment weights): clenbuterol 1 mg/kg/day, metoprolol 200 mg/kg/day, HF 33.8 ± 4.79, Sham 76.1 ± 19.3
Procedure: All studies were performed in compliance with the Guide for the Care and Use of Laboratory Animals (NRC 1996) and were approved by the Institutional Animal Care and Use Committee of Columbia University. Sprague-Dawley rats (Charles River Laboratories, Wilmington, Mass.) weighing 250 to 300 g were used for all experiments. Food and water were provided ad libitum, with rats housed in a light- and temperature-controlled room over the 12-week study period.
(§1) After the induction of general anesthesia with the use of intraperitoneal ketamine (75 mg/kg; Fort Dodge Animal Health, Fort Dodge, Iowa) and xylazine (5 mg/kg; Lloyd Laboratories, Shenandoah, Iowa), endotracheal intubation with a 16-guage angiocathether was performed. Rats were supported by a small animal ventilator (Harvard Apparatus, Holliston, Mass.). After performing a left thoracotomy, a sham operation (pericardiectomy only) or left anterior descending artery (LAD) ligation with a 7-0 polypropylene suture was performed. Subsequently, a chest tube (16-guage angiocathether) was placed in the left pleural space prior to closing the incision in three layers. Finally, the chest tube was used to aspirate the pleural cavity and removed after extubation.
(§2) A total of 69 rats were used in this study. LAD ligation surgery was performed in 60 rats, of which 37 (62%) survived three weeks post-surgery. Another 9 rats underwent a sham operation (group Sham), with 7 (78%) survivors. Three weeks post-operatively, echocardiography was performed to establish the baseline level of HF (as measured by fractional shortening). The LAD ligation rats were divided into 4 treatment groups matched for the degree of HF and were randomly assigned to one of the following therapies for 9 additional weeks: (1) rats receiving no therapy (group HF, n=9); (2) rats receiving high-dose clenbuterol at 1 mg/kg/day (group Clen, n=9); (3) rats receiving high-dose metoprolol at 200 mg/kg/day (group Meto, n=9); or (4) rats receiving concurrent high-dose clenbuterol at 1 mg/kg/day and high-dose metoprolol therapy at 200 mg/kg/day (group Clen+Meto, n=10).
Clenbuterol (ICN Biomedicals, Aurora, Ohio) was sonicated and subsequently dissolved in the drinking water. Metoprolol (Sigma-Aldrich, St. Louis, Mo.) was dissolved in the drinking water either alone or in combination with clenbuterol for the Clen+Meto group. The concentrations of clenbuterol and metoprolol were varied to keep the study drug dose delivered within a narrow therapeutic window based on daily water consumption. […]
Body weight was measured pre-surgery and 3 and 12 weeks post-surgery. Heart weight was measured immediately after the heart was excised. The ratio of body weight to heart weight was subsequently calculated.

[2] = test system: rats with HF induced by LAD ligation; assay: Hemodynamic measurements (Millar catheter) in LAD ligation ischemic HF rats (Example 5); conditions: mean ± SD, after 9 weeks oral therapy; for MAP: HF 47.2 ± 8.85, Sham 39.8 ± 5.56; for LVSP: HF 113 ± 10.3, Sham 116 ± 17.3; for HR: HF 302 ± 19.1, Sham 291 ± 52.2; for Maximum dP/dt: HF 4609 ± 583, Sham 6700 ± 1706; for Minimum dP/dt: HF −3854 ± 563, Sham −6458 ± 1799
Procedure: as §1
as §2, with “LAD ligation surgery was performed in 60 rats, of which 37 (62%) survived three weeks post-surgery. Another 9 rats underwent a sham operation (group Sham), with 7 (78%) survivors.” left out
Clenbuterol (ICN Biomedicals, Aurora, Ohio) was sonicated and subsequently dissolved in the drinking water. Metoprolol (Sigma-Aldrich, St. Louis, Mo.) was dissolved in the drinking water either alone or in combination with clenbuterol for the Clen+Meto group. The concentrations of clenbuterol and metoprolol were varied to keep the study drug dose delivered within a narrow therapeutic window based on daily water consumption. […] The treated drinking water was made fresh every 48-72 hours. Oral pharmacotherapy was continued for a total of 9 weeks.
In the terminal experiments 12 weeks post-surgery, the rats were anesthetized with inhaled isoflurane mixed with oxygen. A 2-French Millar catheter (Millar Instruments, Houston, Tex.) was inserted into the right carotid artery and pressure measurements collected and saved as the catheter was advanced into the left ventricle. The heart was quickly arrested in diastole and excised. Hearts were subsequently weighed and used for the ex vivo determination of LV end-diastolic pressure-volume relationships (EDPVR). Using Chart 4 (version 4.2.4, ADInstruments, Colorado Springs, Colo.), left ventricular end-diastolic pressure (LVEDP), left ventricular systolic pressure (LVSP), mean aortic pressure (MAoP), heart rate, and maximum and minimum LV dP/dt (dP/dtmax and dP/dtmin) were later obtained from stored hemodynamic recordings by a single individual (S.X.), who was blinded to animals' group assignments.

[3] = test system: rats with HF induced by LAD ligation; assay: Ex vivo end-diastolic pressure-volume relationships (EDPVR) (Example 5); conditions: for passive LV Volume at 30 mmHg, normalized for heart weight: ex vivo EDPVR, HF 0.50, Sham 0.36
Procedure: as §2
An 18-gauge angiocatheter was placed into the LV through the aortic valve and connected to a three-way stopcock. A fine hemostat was placed on the atrial side of the mitral annulus to seal the LV. After eliminating any air from the system, LV pressures were measured using a […] Millar micromanometer introduced through the angiocatheter. While recording LV pressure using an analog-to-digital conversion reading system (Chart 4, version 4.2.4; ADInstruments, Colorado Springs, Colo.), saline was infused into the LV cavity in 50 μL increments using a calibrated 1 mL syringe. The infused fluid was withdrawn and measured to ensure that no leakage had occurred. Data was utilized only if >95% of the injected volume was recovered. Using commercial software (Igor Pro, version 4.0.5.1; WaveMetrics, Lake Oswego, Oreg.), values of LV pressure (P) and volume (V) were fitted according to the equation: […]
where β is the base constant and α is an index of ventricular stiffness, as previously described (Mirsky I. Assessment of passive elastic stiffness of cardiac muscle: mathetical concepts, physiologic and clinical considerations, directions of future research. Prog Cardiovasc Dis. 1976; 18:277-308). […]

SMILES | Heart Wt [1] | % Δ Weight (percentage change in pre-treatment to post-treatment weights) [1] | MAP [2] [mmHg] | LVSP [2] [mmHg] | HR [2] [bpm] | Maximum dP/dt [2] [mmHg/s] | Minimum dP/dt [2] [mmHg/s] | passive LV Volume at 30 mmHg, normalized for heart weight [3] | shift of EDPVR curve versus Sham rats ([3]; ex vivo, normalized for heart weight)
COCCc1ccc(OCC(O)CNC(C)C)cc1 (centres unmarked) [Meto, metoprolol] | 2.17 ± 0.34 gm | 32.3 ± 7.16 % | 42.7 ± 5.38 | 107 ± 9.27 | 243 ± 19.4 | 5462 ± 541 | −4032 ± 830 | 0.51 mL/gm of heart weight | rightward shift
CC(C)(C)NCC(O)c1cc(Cl)c(N)c(Cl)c1 (centres unmarked) [Clen, clenbuterol] | 2.64 ± 0.41 § † gm | 49.9 ± 7.18 † % | 44.2 ± 6.06 | 109 ± 10.7 | 281 ± 11.2 | 4933 ± 596 | 3901 ± 694 | 0.42 mL/gm of heart weight | –

Reference: patent US20090088482A1, “Compositions and Methods For Treating Heart Failure” (The Trustees Of Columbia University In The City New York, priority 2003, published 2009)
